Test results taken from patent US20160367557A1, “HE[…] ACID DERIVATIVES WHICH ARE USEFUL IN THE TREATMENT, AMELIORATION OR PREVENTION OF A VIRAL DISEASE” (Savira pharmaceuticals GmbH, priority 2012, published 2016).

Experiments:
[1] = test system: influenza A virus (IAV) A/Aichi/2/68 (H3N2); experiment: Cytopathic effect (CPE) assay; format: cell-based; conditions: MDCK cells, 48 hrs; for IC50: Influenza A virus, H3N2

## O=C(O)Cc1c[nH]c2nc(Nc3ccccc3)nn2c1=O
other
  melting point: 279 to 281 °C

## O=C(O)c1cn(Cc2ccccc2)c2cc(C3CC3)nn2c1=O
other
  melting point: 210 to 215 °C

## O=C(O)c1cn(CCc2ccccc2)c2cc(C3CC3)nn2c1=O
other
  melting point: 185 to 190 °C

## O=C(O)c1cn(CCc2ccc(O)cc2)c2cc(C3CC3)nn2c1=O
other
  melting point: 265 to 270 °C

## O=C(O)c1cn(CCc2ccc(Cl)cc2)c2cc(C3CC3)nn2c1=O
other
  melting point: 220 to 225 °C

## COc1ccc(CCn2cc(C(=O)O)c(=O)n3nc(C4CC4)cc23)cc1
other
  melting point: 145 to 150 °C

## O=C(O)c1cn(CCc2ccc(C(F)(F)F)cc2)c2cc(C3CC3)nn2c1=O
other
  melting point: 225 to 230 °C

## O=C(O)c1cn(CCc2cccc(Cl)c2)c2cc(C3CC3)nn2c1=O
other
  melting point: 230 to 235 °C

## O=C(O)c1cn(CCc2cccc(C(F)(F)F)c2)c2cc(C3CC3)nn2c1=O
other
  melting point: 200 to 205 °C

## O=C(O)c1cn(CCCc2ccccc2)c2cc(C3CC3)nn2c1=O
other
  melting point: 95 to 100 °C

## CC(C)c1cc2n(Cc3ccccc3)cc(C(=O)O)c(=O)n2n1
other
  melting point: 180 to 185 °C

## CC(C)c1cc2n(CCc3ccccc3)cc(C(=O)O)c(=O)n2n1
other
  melting point: 220 to 225 °C

## O=C(O)c1cn(Cc2ccccc2)c2cc(C3CCCC3)nn2c1=O
other
  melting point: 213 to 215 °C

## O=C(O)c1cn(CCc2ccccc2)c2cc(C3CCCC3)nn2c1=O
other
  melting point: 198 to 200 °C

## O=C(O)Cc1c[nH]c2cc(C(F)(F)F)nn2c1=O
other
  melting point: 320 to 324 °C

## O=C(O)Cc1c[nH]c2cc(C3CC3)nn2c1=O
other
  melting point: > 300 °C

## O=C(NCCc1ccc(Cl)cc1)c1cc2[nH]cc(C(=O)O)c(=O)n2n1
other
  melting point: > 300 °C

## CCOC(=O)c1c[nH]c2nc(NCc3ccccc3)nn2c1=O
other
  melting point: 275 to 278 °C

## CCOC(=O)c1c[nH]c2nc(NCc3ccc(Br)cc3)nn2c1=O
other
  melting point: 286 to 287 °C

## CCOC(=O)c1c[nH]c2nc(NCc3cccc4ccccc34)nn2c1=O
other
  melting point: 273 to 275 °C

## CCOC(=O)c1c[nH]c2nc(Nc3ccc(NC(C)=O)cc3)nn2c1=O
other
  melting point: > 330 °C

## CCOC(=O)c1c[nH]c2nc(Nc3ccc(C)c(Cl)c3)nn2c1=O
other
  melting point: > 340 °C

## CCOC(=O)Cc1c[nH]c2nc(Nc3ccccc3)nn2c1=O
other
  melting point: 255 to 257 °C

## CCOC(=O)Cc1c[nH]c2nc(Nc3ccc(OC(C)C)cc3)nn2c1=O
other
  melting point: 235 to 240 °C

## CCOC(=O)c1c[nH]c2c(C#N)c(CCCNC)nn2c1=O
other
  melting point: 285 to 287 °C

## O=C(O)c1c[nH]c2cc(C3CC3)nn2c1=O
other
  melting point: 275 to 278 °C

## O=C(O)c1c[nH]c2cc(C(F)(F)F)nn2c1=O
other
  melting point: > 340 °C

## CCOC(=O)c1cn(Cc2ccccc2)c2cc(C3CC3)nn2c1=O
other
  melting point: 160 to 165 °C

## CCOC(=O)c1cn(CCc2ccccc2)c2cc(C3CC3)nn2c1=O
other
  melting point: 155 to 160 °C

## CCOC(=O)c1cn(CCc2ccc(O)cc2)c2cc(C3CC3)nn2c1=O
other
  melting point: 95 to 100 °C

## CCOC(=O)c1cn(CCc2ccc(OC)cc2)c2cc(C3CC3)nn2c1=O
other
  melting point: 160 to 165 °C

## CCOC(=O)c1cn(CCc2cccc(Cl)c2)c2cc(C3CC3)nn2c1=O
other
  melting point: 160 to 165 °C

## CCOC(=O)c1cn(CCc2cccc(F)c2)c2cc(C3CC3)nn2c1=O
other
  melting point: 160 to 165 °C

## CCOC(=O)c1cn(Cc2ccccc2)c2cc(C(C)C)nn2c1=O
other
  melting point: 135 to 140 °C

## CCOC(=O)c1cn(CCc2ccccc2)c2cc(C(C)C)nn2c1=O
other
  melting point: 130 to 135 °C

## CCOC(=O)c1cn(CCc2ccccc2)c2cc(C3CCCC3)nn2c1=O
other
  melting point: 162 to 164 °C

## CCOC(=O)Cc1c[nH]c2cc(-c3ccccc3)nn2c1=O
other
  melting point: 245 to 250 °C

## CCOC(=O)Cc1c[nH]c2cc(C(F)(F)F)nn2c1=O
other
  melting point: 290 to 293 °C

## CCOC(=O)Cc1c[nH]c2cc(C3CC3)nn2c1=O
other
  melting point: 280 to 283 °C

## CCOC(=O)Cc1cn(C)c2cc(C3CC3)nn2c1=O
other
  melting point: 147 to 150 °C

## CCOC(=O)c1c[nH]c2cc(C(=O)NCCc3ccc(Cl)cc3)nn2c1=O
other
  melting point: > 300 °C

## CCOC(=O)c1c[nH]c2cc(C(=O)NC3CCN(Cc4ccccc4)CC3)nn2c1=O
other
  melting point: 264 to 266 °C

## CCOC(=O)c1c[nH]c2cc(C(=O)NCc3ccccc3)nn2c1=O
other
  melting point: 290 to 292 °C

## O=C(O)c1c[nH]c2nc(NCc3ccccc3)nn2c1=O
other
  melting point: 240 to 245 °C

## O=C(O)c1cn(Cc2ccccc2-c2ccccc2)c2sc(NCc3ccccc3)nc2c1=O
[1]
  IC50: 19 µM

## COCCNc1nc2c(=O)c(C(=O)O)cn(Cc3ccccc3-c3ccccc3)c2s1
[1]
  CPE activity in words: inactive

## O=C(O)c1cn(Cc2ccccc2-c2ccccc2)c2sc(NS(=O)(=O)c3ccccc3)nc2c1=O
[1]
  IC50: 17 µM

## CNc1nc2c(=O)c(C(=O)O)cn(Cc3ccccc3-c3ccccc3)c2s1
[1]
  CPE activity in words: inactive

## O=C(O)c1cn(Cc2ccccc2-c2ccccc2)c2sc(NC3CC3)nc2c1=O
[1]
  IC50: 31 µM

## CC(C)Nc1nc2c(=O)c(C(=O)O)cn(Cc3ccccc3-c3ccccc3)c2s1
[1]
  CPE activity in words: inactive

## O=C(O)c1cn(Cc2ccccc2-c2ccccc2)c2sc(N3CCOCC3)nc2c1=O
[1]
  CPE activity in words: inactive

## O=C(O)c1cn(Cc2ccccc2-c2ccccc2)c2sc(NS(=O)(=O)c3cccc(F)c3)nc2c1=O
[1]
  IC50: 19 µM

## O=C(O)c1cn(Cc2ccccc2-c2ccccc2)c2sc(NCc3ccc(Cl)cc3)nc2c1=O
[1]
  IC50: 9.3 µM

## O=C(O)c1cn(Cc2ccccc2-c2ccccc2)c2sc(NCc3cccc(Cl)c3)nc2c1=O
[1]
  IC50: 12 µM

## COc1ccc(S(=O)(=O)Nc2nc3c(=O)c(C(=O)O)cn(Cc4ccccc4-c4ccccc4)c3s2)cc1
[1]
  IC50: 15 µM

## O=C(O)c1cn(Cc2ccccc2-c2ccccc2)c2sc(NS(=O)(=O)c3ccc(Cl)cc3F)nc2c1=O
[1]
  IC50: 11 µM

## CS(=O)(=O)Nc1nc2c(=O)c(C(=O)O)cn(Cc3ccccc3-c3ccccc3)c2s1
[1]
  CPE activity in words: inactive

## COc1ccc(CNc2nc3c(=O)c(C(=O)O)cn(Cc4ccccc4-c4ccccc4)c3s2)cc1
[1]
  IC50: 11 µM

## CC(Nc1nc2c(=O)c(C(=O)O)cn(Cc3ccccc3-c3ccccc3)c2s1)c1ccccc1 (stereo not shown)
[1]
  IC50: 24 µM

## O=C(O)c1cn(Cc2ccccc2-c2ccccc2)c2sc(O)nc2c1=O
[1]
  IC50: 33 µM

## CCOC(=O)c1cn(Cc2ccccc2-c2ccccc2)c2sc(NS(=O)(=O)c3ccc(Cl)cc3)nc2c1=O
[1]
  IC50: 23 µM

## O=C(O)c1cn(C(c2ccccc2)c2ccccc2)c2sc(NS(=O)(=O)c3ccc(Cl)cc3F)nc2c1=O
[1]
  IC50: 26 µM

## CCOC(=O)c1cn(C(c2ccccc2)c2ccccc2)c2sc(NS(=O)(=O)c3ccc(OC)cc3)nc2c1=O
[1]
  IC50: 36 µM

## CCOC(=O)c1cn(C(c2ccccc2)c2ccccc2)c2sc(NCc3ccc(Cl)cc3)nc2c1=O
[1]
  IC50: 45 µM

## COc1ccc(CNc2nc3c(=O)c(C(=O)O)cn(Cc4ccc(Cl)cc4-c4ccccc4)c3s2)cc1
[1]
  IC50: 22 µM

## O=C(O)c1cn(C(c2ccccc2)c2ccccc2)c2sc(NCc3cccc(Cl)c3)nc2c1=O
[1]
  IC50: 32 µM

## COc1ccc(S(=O)(=O)Nc2nc3c(=O)c(C(=O)O)cn(C(c4ccccc4)c4ccccc4)c3s2)cc1
[1]
  IC50: 31 µM

## CCOC(=O)c1cn(C(c2ccccc2)c2ccccc2)c2sc(NCc3cccc(Cl)c3)nc2c1=O
[1]
  IC50: 27 µM

## O=C(O)c1cn(C(c2ccccc2)c2ccccc2)c2sc(O)nc2c1=O
[1]
  IC50: 47 µM

## O=C(O)c1cn(Cc2ccc(Cl)cc2-c2ccccc2)c2sc(O)nc2c1=O
[1]
  IC50: 18 µM

## O=C(O)c1cn(C(c2ccccc2)c2ccccc2)c2sc(NCc3ccccc3)nc2c1=O
[1]
  IC50: 14 µM

## O=C(O)c1cn(Cc2ccccc2-c2ccccc2)c2sc(NS(=O)(=O)Cc3ccc(Cl)cc3Cl)nc2c1=O
[1]
  IC50: 20 µM

## COc1ccc(S(=O)(=O)Nc2nc3c(=O)c(C(=O)O)cn(Cc4ccccc4-c4ccc(Cl)cc4)c3s2)cc1
[1]
  IC50: 8.9 µM

## O=C(O)c1cn(Cc2ccccc2-c2ccccc2)c2scnc2c1=O
[1]
  CPE activity in words: inactive

## N#Cc1ccc(S(=O)(=O)Nc2nc3c(=O)c(C(=O)O)cn(Cc4ccccc4-c4ccc(Cl)cc4)c3s2)cc1
[1]
  IC50: 14 µM

## Nc1nc2c(=O)c(C(=O)O)cn(Cc3ccccc3-c3ccccc3)c2s1
[1]
  CPE activity in words: inactive

## O=C(O)c1c[nH]c2cc(C3CCCC3)nn2c1=O
[1]
  CPE activity in words: inactive

## CC(C)c1cc2n(CCCc3ccccc3)cc(C(=O)O)c(=O)n2n1
[1]
  CPE activity in words: inactive

## CC(C)c1cc2[nH]cc(C(=O)O)c(=O)n2n1
[1]
  CPE activity in words: inactive

## CS(=O)(=O)n1cc(C(=O)O)c(=O)n2nc(N)cc12
[1]
  CPE activity in words: inactive

## Nc1cc2n(Cc3ccccc3-c3ccccc3)cc(C(=O)O)c(=O)n2n1
[1]
  CPE activity in words: inactive

## O=C(O)c1cn(Cc2ccccc2-c2ccccc2)c2ccnn2c1=O
[1]
  CPE activity in words: inactive

## Nc1cc2n(S(=O)(=O)c3ccccc3)cc(C(=O)O)c(=O)n2n1
[1]
  CPE activity in words: inactive

## Nc1cc2n(S(=O)(=O)Cc3ccccc3)cc(C(=O)O)c(=O)n2n1
[1]
  CPE activity in words: inactive

## O=C(O)c1c[nH]c2ccnn2c1=O [drawing 207]
[1]
  CPE activity in words: inactive

## O=C(O)c1c[nH]c2nc(NCc3ccccc3)nn2c1=O [drawing 211]
[1]
  CPE activity in words: inactive

## Nc1cc2n(C(=O)C3(c4ccccc4)CCCC3)cc(C(=O)O)c(=O)n2n1 [drawing 213]
[1]
  CPE activity in words: inactive

## O=C(O)c1cn(CCc2cccc(Cl)c2)c2cc(C3CC3)nn2c1=O [drawing 215]
[1]
  CPE activity in words: inactive

## O=C(O)c1cn(CCc2cccc(F)c2)c2cc(C3CC3)nn2c1=O [drawing 216]
[1]
  CPE activity in words: inactive

## O=C(O)c1cn(CCc2ccccc2)c2cc(C3CCCC3)nn2c1=O [drawing 218]
[1]
  CPE activity in words: inactive

## CCOC(=O)c1cn(CCc2ccc(O)cc2)c2cc(C3CC3)nn2c1=O [drawing 220]
[1]
  CPE activity in words: inactive

## O=C(O)c1cn(CCc2cccc(C(F)(F)F)c2)c2cc(C3CC3)nn2c1=O [drawing 221]
[1]
  CPE activity in words: inactive

## O=C(O)c1cn(CCc2ccc(O)cc2)c2cc(C3CC3)nn2c1=O [drawing 222]
[1]
  CPE activity in words: inactive

## COc1ccc(CCn2cc(C(=O)O)c(=O)n3nc(C4CC4)cc23)cc1 [drawing 223]
[1]
  CPE activity in words: inactive
